Measurements reported in US20240018128A1, “PESTICIDALLY ACTIVE HETEROCYCLIC DERIVATIVES WITH SULFUR CONTAINING SUBSTITUENTS” (SYNGENTA CROP PROTECTION AG, priority 2020, published 2024).

Tests used:
Assay type in all cases: in vivo
[1] = tested on: Spodoptera littoralis (Egyptian cotton leaf worm); assay: Example B6: Activity against Spodoptera littoralis (Egyptian cotton leaf worm); settings: foliar, 72 h, application rate 200 ppm, cotton leaf discs sprayed, L1 larvae, 3 days after infestation, read-out: control (mortality, anti-feeding effect or growth inhibition)
Experimental: Example B6: Activity Against Spodoptera littoralis (Egyptian Cotton Leaf Worm)
Cotton leaf discs were placed onto agar in 24-well microtiter plates and sprayed with aqueous test solutions prepared from 10,000 ppm DMSO stock solutions. After drying the leaf discs were infested with five L1 larvae. The samples were assessed for mortality, anti-feeding effect, and growth inhibition in comparison to untreated samples 3 days after infestation. Control of Spodoptera littoralis by a test sample is given when at least one of the categories mortality, anti-feedant effect, and growth inhibition is higher than the untreated sample.

[2] = tested on: Euschistus heros (neotropical brown stink bug); assay: Example B2: Activity against Euschistus heros (neotropical brown stink bug); settings: 120 h, application rate 200 ppm, soybean leaves sprayed, N2 nymphs, 5 days after infestation, read-out: effect in at least one of the two categories (mortality or growth inhibition)
Experimental: Example B2: Activity Against Euschistus heros (Neotropical Brown Stink Bug)
Soybean leaves on agar in 24-well microtiter plates were sprayed with aqueous test solutions prepared from 10,000 ppm DMSO stock solutions. After drying the leaves were infested with N2 nymphs. The samples were assessed for mortality and growth inhibition in comparison to untreated samples 5 days after infestation.

[3] = tested on: Frankliniella occidentalis (western flower thrips); assay: Example B3: Activity against Frankliniella occidentalis (western flower thrips), feeding/contact activity; settings: foliar, 168 h, application rate 200 ppm, sunflower leaf discs sprayed, population of mixed ages, 7 days after infestation
Experimental: Example B3: Activity Against Frankliniella occidentalis (Western Flower Thrips) Feeding/Contact Activity
Sunflower leaf discs were placed on agar in 24-well microtiter plates and sprayed with aqueous test solutions prepared from 10,000 DMSO stock solutions. After drying the leaf discs were infested with a Frankliniella population of mixed ages. The samples were assessed for mortality 7 days after infestation.

[4] = tested on: Myzus persicae (green peach aphid); assay: Example B4: Activity against Myzus persicae (green peach aphid), feeding/contact activity; settings: foliar, 144 h, application rate 200 ppm, sunflower leaf discs sprayed, aphid population of mixed ages, 6 days after infestation
Experimental: Example B4: Activity Against Myzus persicae (Green Peach Aphid) Feeding/Contact Activity
Sunflower leaf discs were placed onto agar in a 24-well microtiter plate and sprayed with aqueous test solutions prepared from 10,000 ppm DMSO stock solutions. After drying, the leaf discs were infested with an aphid population of mixed ages. The samples were assessed for mortality 6 days after infestation.

[5] = tested on: Diabrotica balteata (corn root worm); assay: Example B1: Activity against Diabrotica balteata (corn root worm); settings: 96 h, application rate 200 ppm, maize sprouts sprayed, L2 larvae, 4 days after infestation, read-out: effect in at least one of the two categories (mortality or growth inhibition)
Experimental: Example B1: Activity Against Diabrotica Balteata (Corn Root Worm)
Maize sprouts placed onto an agar layer in 24-well microtiter plates were treated with aqueous test solutions prepared from 10,000 ppm DMSO stock solutions by spraying. After drying, the plates were infested with L2 larvae (6 to 10 per well). The samples were assessed for mortality and growth inhibition in comparison to untreated samples 4 days after infestation.

[6] = tested on: Chilo suppressalis (striped rice stemborer); assay: Example B8: Activity against Chilo suppressalis (striped rice stemborer); settings: 144 h, application rate 200 ppm, artificial diet treated by pipetting, L2 larvae, 6 days after infestation, read-out: control (mortality, anti-feeding effect or growth inhibition)
Experimental: Example B8: Activity Against Chilo suppressalis (Striped Rice Stemborer)
24-well microtiter plates with artificial diet were treated with aqueous test solutions prepared from 10,000 ppm DMSO stock solutions by pipetting. After drying, the plates were infested with L2 larvae (6-8 per well). The samples were assessed for mortality, anti-feeding effect, and growth inhibition in comparison to untreated samples 6 days after infestation. Control of Chilo suppressalis by a test sample is given when at least one of the categories mortality, anti-feedant effect, and growth inhibition is higher than the untreated sample.

[7] = tested on: Plutella xylostella (diamond back moth); assay: Example B5: Activity against Plutella xylostella (diamond back moth); settings: 192 h, application rate 200 ppm, artificial diet treated by pipetting, eggs, 8 days after infestation, read-out: effect in at least one of the two categories (mortality or growth inhibition)
Experimental: Example B5: Activity Against Plutella xylostella (Diamond Back Moth)
24-well microtiter plates with artificial diet were treated with aqueous test solutions prepared from 10,000 ppm DMSO stock solutions by pipetting. After drying, Plutella eggs were pipetted through a plastic stencil onto a gel blotting paper and the plate was closed with it. The samples were assessed for mortality and growth inhibition in comparison to untreated samples 8 days after infestation. The following compounds gave an effect of at least 80% in at least one of the two categories (mortality or growth inhibition) at an application rate of 200 ppm: P1, P2, P4, P5, P6, P7, P9, P10, P11, P12, P13, P14, P15, P16, P17, P18.

[8] = tested on: Myzus persicae (green peach aphid); assay: Example B9: Activity against Myzus persicae (green peach aphid), systemic activity; settings: 144 h, test rate 24 ppm, roots of infested pea seedlings placed into test solution, 6 days
Experimental: Example B9: Activity Against Myzus persicae (Green Peach Aphid). Systemic Activity
Roots of pea seedlings infested with an aphid population of mixed ages were placed directly into aqueous test solutions prepared from 10,000 DMSO stock solutions. The samples were assessed for mortality 6 days after placing seedlings into test solutions.

[9] = tested on: Bemisia tabaci (cotton white fly); assay: Example B7: Activity against Bemisia tabaci (cotton white fly), feeding/contact activity; settings: foliar, 144 h, application rate 200 ppm, cotton leaf discs sprayed, adult white flies, 6 days after incubation
Experimental: Example B7: Activity Against Bemisia tabaci (Cotton White Fly) Feeding/Contact Activity
Cotton leaf discs were placed on agar in 24-well microtiter plates and sprayed with aqueous test solutions prepared from 10,000 ppm DMSO stock solutions. After drying the leaf discs were infested with adult white flies. The samples were checked for mortality 6 days after incubation.

CCS(=O)(=O)c1c(N2Cc3ccc(OC(F)(F)F)cc3C2=O)nc(-c2cnn(C3CC3)c2)n1C [Compound P1, 2-[2-(1-cyclopropylpyrazol-4-yl)-5-ethylsulfonyl-1-methyl-imidazol-4-yl]-6-(trifluoromethoxy)isoindolin-1-one]
≥ 80%: control at 200 ppm [1] | percent effect (mortality or growth inhibition) at 200 ppm [2] | mortality at 200 ppm [3] | mortality at 200 ppm [4] | mortality or growth inhibition at 200 ppm [5] | control at 200 ppm [6] | effect (mortality or growth inhibition) at 200 ppm [7]

CCS(=O)(=O)c1c(N2Cc3ncc(C(F)(F)F)cc3C2=O)nc(-c2cnn(CC(F)(F)F)c2)n1C [Compound P10, 6-[5-ethylsulfonyl-1-methyl-2-[1-(2,2,2-trifluoroethyl)pyrazol-4-yl]imidazol-4-yl]-3-(trifluoromethyl)-7H-pyrrolo[3,4-b]pyridin-5-one]
≥ 80%: control at 200 ppm [1] | percent effect (mortality or growth inhibition) at 200 ppm [2] | mortality at 200 ppm [4] | mortality at 24 ppm [8] | mortality or growth inhibition at 200 ppm [5] | control at 200 ppm [6] | effect (mortality or growth inhibition) at 200 ppm [7]

CCS(=O)(=O)c1c(N2Cc3ncc(C(F)(F)F)cc3C2=O)nc(-c2cnn(C(F)F)c2)n1C [Compound P13, 6-[2-[1-(difluoromethyl)pyrazol-4-yl]-5-ethylsulfonyl-1-methyl-imidazol-4-yl]-3-(trifluoromethyl)-7H-pyrrolo[3,4-b]pyridin-5-one]
≥ 80%: control at 200 ppm [1] | percent effect (mortality or growth inhibition) at 200 ppm [2] | mortality at 200 ppm [4] | mortality at 24 ppm [8] | mortality or growth inhibition at 200 ppm [5] | control at 200 ppm [6] | effect (mortality or growth inhibition) at 200 ppm [7]

CCS(=O)(=O)c1c(N2Cc3ncc(C(F)(F)F)cc3C2=O)nc(C2CC2)n1C [Compound P17, 6-(2-cyclopropyl-5-ethylsulfonyl-1-methyl-imidazol-4-yl)-3-(trifluoromethyl)-7H-pyrrolo[3,4-b]pyridin-5-one]
≥ 80%: control at 200 ppm [1] | mortality at 200 ppm [4] | mortality at 24 ppm [8] | mortality at 200 ppm [9] | mortality or growth inhibition at 200 ppm [5] | control at 200 ppm [6] | effect (mortality or growth inhibition) at 200 ppm [7]
